Converted amounts (≈) assume the structure as drawn. Where two headings read alike, the source gives them in different places. Non-standard residues stand in square brackets, D forms with d. Residues, ends and D or L forms follow the SMILES beside them. Aoc = NCCCCCCCC(=O)O; βAla = NCCC(=O)O
Columns and labels:
[1] = test system: Staphylococcus aureus ATCC 29213; type: cell-based
[2] = test system: Escherichia coli ATCC 25922; type: cell-based
[3] = test system: Pseudomonas aeruginosa ATCC 27853; type: cell-based
[4] = Subacute toxicity in CD-1 mice; type: in vivo; conditions: daily IP for 7 days
Method: In the subacute toxicity study, groups of CD-1 male or female mice were administered seven consecutive daily intraperitoneal doses (n=3 per dose) of the peptides (SEQ ID NO: 7, SEQ ID NO: 29, SEQ ID NO: 53) dissolved in normal saline for injection. Each peptide was evaluated at 2 to 3 dose levels ranging from 2.5 to 7.5 mg/kg/day. Mice were weighed at least once daily and observed at least twice daily for any abnormal findings and determination of overall health. At 24 hrs after the last dose, mice were humanely euthanized, with blood collected through cardiac puncture into K2EDTA microtainers to assess hematological parameters. All three peptides were tolerated at the highest dose evaluated (7.5 mg/kg/day) for 7 days.

C. albicans = conditions: 24 h
C. glabrata = conditions: 24 h
C. parapsilosis = conditions: 24 h
C. krusei = conditions: 24 h
C. auris = conditions: 24 h
C. tropicalis = conditions: 24 h
C. dubliniensis = conditions: 24 h
C. neoformans = conditions: 72 h
C. gattii = conditions: 72 h
Coccidioides species = conditions: 48-72 hrs, >50% inhibition
Fusarium spp. = conditions: 48 h
Scedosporium spp. = conditions: 72 h
[5] = mice
in vitro [6] = conditions: human, EC50 cytotoxicity in HepG2, intracellular ATP assay
in vitro [7] = conditions: human, human serum, full strength
[8] = Acute toxicity in CD-1 mice; conditions: both sexes, mouse, in vivo
Method: Acute toxicity and subacute toxicity of ACPs were tested in CD-1 mice. In the acute toxicity study, groups of CD-1 male or female mice were administered single intravenous or intraperitoneal escalating doses (n=2-3 per dose) of the peptides dissolved in normal saline for injection or in phosphate buffered saline. The intravenous dose was administered via tail vein with a slow push over 15-20 seconds. Doses were escalated based on tolerability.

Rhizopus arrhizus = conditions: 24 h
Paecilomyces variotii = conditions: 48 h

Compound	MIC Staphylococcus aureus [1] [µg/mL]	MIC Escherichia coli [2] [µg/mL]	MIC Pseudomonas aeruginosa [3] [µg/mL]	MIC C. albicans (C. albicans) [µg/mL]	MIC C. glabrata (C. glabrata) [µg/mL]	MIC C. parapsilosis (C. parapsilosis) [µg/mL]	MIC C. krusei (C. krusei) [µg/mL]	MIC C. auris (C. auris) [µg/mL]	MIC C. tropicalis (C. tropicalis) [µg/mL]	MIC C. dubliniensis (C. dubliniensis) [µg/mL]	MIC C. neoformans (C. neoformans) [µg/mL]	MIC C. gattii (C. gattii) [µg/mL]	MIC Range Fusarium spp. (Fusarium spp.) [µg/mL]	MIC Range Scedosporium spp. (Scedosporium spp.) [µg/mL]	MIC Range Lomentospora prolificans (Lomentospora prolificans) [µg/mL]	EC50 (in vitro [6]) [µg/mL]	remaining at 2 h, 5 μM (in vitro [7]) [%]	MIC50 Candida species (Candida spp.) [µg/mL]	MIC90 Candida species (Candida spp.) [µg/mL]	further results
N=C(N)NCCC[C@@H](N)C(=O)N[C@@H](CCCNC(=N)N)C(=O)N[C@H](CCCNC(=N)N)C(=O)NCCCCCCCC(=O)N[C@H](CCCNC(=N)N)C(=O)N[C@@H](CCCNC(=N)N)C(=O)N[C@H](CCCNC(=N)N)C(=O)NCCCCCCCC(=O)N[C@H](CCCNC(=N)N)C(=O)N[C@@H](CCCNC(=N)N)C(=O)N[C@H](CCCNC(=N)N)C(=O)N[C@@H](CCCNC(=N)N)C(=O)NCCCCCCCC(=O)N[C@H](CCCNC(=N)N)C(=O)N[C@@H](CCCNC(=N)N)C(=O)N[C@H](CCCNC(=N)N)C(=O)N[C@@H](CCCNC(=N)N)C(N)=O [SEQ ID NO: 29, rRr-(Aoa)-rRr-(Aoa)-rRrR-(Aoa)-rRrR-NH2] (H-[dR]R[dR][Aoc][dR]R[dR][Aoc][dR]R[dR]R[Aoc][dR]R[dR]R-NH2)	16 (≈ 6.09 µM)	16 (≈ 6.09 µM)	32 (≈ 12.2 µM)	1 (≈ 0.381 µM)	0.5 (≈ 0.19 µM)	0.5 (≈ 0.19 µM)	0.5 (≈ 0.19 µM)	0.5 (≈ 0.19 µM)	0.5 (≈ 0.19 µM)	0.5 (≈ 0.19 µM)	0.5 (≈ 0.19 µM)	0.5 (≈ 0.19 µM)	0.5 (≈ 0.19 µM)	0.5 (≈ 0.19 µM)	0.5 (≈ 0.19 µM)	> 300	~100	–	–	Tolerated dose (highest dose evaluated) [4]: 7.5 mg/kg/day; Clinical or hematological adverse effects ([4]; up to 7.5 mg/kg/day): No significant clinical or hematological adverse effects were observed; MIC Range Coccidioides species (Coccidioides species; N = 10 strains): 0.06 to 0.25 µg/mL; Kidney to Plasma Concentration Ratio Day 7 ([5]; 6 hrs post dose of 7.5 mg/kg IP once daily, Day 7, mean ± SD, n = 3): 361 ± 322; Kidney to Plasma Concentration Ratio Day 1 ([5]; 6 hrs post dose of 7.5 mg/kg IP, Day 1, mean ± SD, n = 3): 236 ± 233; Day 1 AUC ratio, kidney to plasma ([5]; IP 7.5 mg/kg, Day 1): 158
N=C(N)NCCC[C@H](NC(=O)CCNC(=O)[C@H](CCCNC(=N)N)NC(=O)[C@@H](CCCNC(=N)N)NC(=O)[C@@H](N)CCCNC(=N)N)C(=O)N[C@H](CCCNC(=N)N)C(=O)N[C@@H](CCCNC(=N)N)C(=O)NCCC(=O)N[C@@H](CCCNC(=N)N)C(=O)N[C@H](CCCNC(=N)N)C(=O)N[C@@H](CCCNC(=N)N)C(=O)N[C@H](CCCNC(=N)N)C(=O)NCCC(=O)N[C@@H](CCCNC(=N)N)C(=O)N[C@H](CCCNC(=N)N)C(=O)N[C@@H](CCCNC(=N)N)C(=O)N[C@H](CCCNC(=N)N)C(N)=O [SEQ ID NO: 15, RrR-(Apr)-RrR-(Apr)-RrRr-(Apr)-RrRr-NH2] (H-R[dR]R[βAla]R[dR]R[βAla]R[dR]R[dR][βAla]R[dR]R[dR]-NH2)	16 (≈ 6.62 µM)	32 (≈ 13.2 µM)	64 (≈ 26.5 µM)	1 (≈ 0.414 µM)	0.5 (≈ 0.207 µM)	0.25 (≈ 0.103 µM)	0.5 (≈ 0.207 µM)	0.5 (≈ 0.207 µM)	0.25 (≈ 0.103 µM)	0.5 (≈ 0.207 µM)	0.5 (≈ 0.207 µM)	0.25 (≈ 0.103 µM)	0.12 to 0.25	0.25 to 0.5	–	> 300	~100	0.5 (≈ 0.207 µM)	1 (≈ 0.414 µM)	–
N=C(N)NCCC[C@H](NC(=O)[C@H](CCCNC(=N)N)NC(=O)[C@H](CCCNC(=N)N)NC(=O)[C@H](CCCNC(=N)N)NC(=O)CCNC(=O)[C@H](CCCNC(=N)N)NC(=O)[C@H](CCCNC(=N)N)NC(=O)[C@H](CCCNC(=N)N)NC(=O)[C@H](CCCNC(=N)N)NC(=O)CCNC(=O)[C@H](CCCNC(=N)N)NC(=O)[C@H](CCCNC(=N)N)NC(=O)[C@H](CCCNC(=N)N)NC(=O)CCNC(=O)[C@H](CCCNC(=N)N)NC(=O)[C@H](CCCNC(=N)N)NC(=O)[C@@H](N)CCCNC(=N)N)C(N)=O [SEQ ID NO: 13, RRR-(Apr)-RRR-(Apr)-RRRR-(Apr)-RRRR-NH2] (H-RRR[βAla]RRR[βAla]RRRR[βAla]RRRR-NH2)	–	–	–	8 (≈ 3.31 µM)	32 (≈ 13.2 µM)	0.25 (≈ 0.103 µM)	2 (≈ 0.828 µM)	4 (≈ 1.66 µM)	0.5 (≈ 0.207 µM)	2 (≈ 0.828 µM)	1 (≈ 0.414 µM)	0.5 (≈ 0.207 µM)	0.5 to 2	0.25 (≈ 0.103 µM)	–	> 300	~40	4 (≈ 1.66 µM)	16 (≈ 6.62 µM)	–
N=C(N)NCCC[C@@H](N)C(=O)N[C@@H](CCCNC(=N)N)C(=O)N[C@H](CCCNC(=N)N)C(=O)NCCC(=O)N[C@H](CCCNC(=N)N)C(=O)N[C@@H](CCCNC(=N)N)C(=O)N[C@H](CCCNC(=N)N)C(=O)NCCC(=O)N[C@H](CCCNC(=N)N)C(=O)N[C@@H](CCCNC(=N)N)C(=O)N[C@H](CCCNC(=N)N)C(=O)N[C@@H](CCCNC(=N)N)C(=O)NCCC(=O)N[C@H](CCCNC(=N)N)C(=O)N[C@@H](CCCNC(=N)N)C(=O)N[C@H](CCCNC(=N)N)C(=O)N[C@@H](CCCNC(=N)N)C(=O)O [SEQ ID NO: 8, rRr-(Apr)-rRr-(Apr)-rRrR-(Apr)-rRrR] (H-[dR]R[dR][βAla][dR]R[dR][βAla][dR]R[dR]R[βAla][dR]R[dR]R-OH)	–	–	–	0.5 (≈ 0.207 µM)	0.5 (≈ 0.207 µM)	0.25 (≈ 0.103 µM)	0.5 (≈ 0.207 µM)	4 (≈ 1.65 µM)	0.25 (≈ 0.103 µM)	0.25 (≈ 0.103 µM)	0.5 (≈ 0.207 µM)	0.25 (≈ 0.103 µM)	0.25 to 0.5	≤0.12	≤0.12	> 300	~100	–	–	MTD ([8]; single IP dose, read-out: Tolerated single intraperitoneal dose): 10 to 15 mg/kg; MTD ([8]; single IV dose via tail vein, read-out: Tolerated single intravenous dose): 5 to 7.5 mg/kg; MIC Range Coccidioides species (Coccidioides species; N = 3 strains): 0.25 to 0.5 µg/mL; MIC Range Rhizopus arrhizus (Rhizopus arrhizus): 2 to 32 µg/mL; MIC Range Paecilomyces variotii (Paecilomyces variotii): 0.25 µg/mL (≈ 0.103 µM)

From patent publication US20240360177A1, “PEPTIDES WITH ANTIMICROBIAL ACTIVITIES” (priority 2021, published 2024)
